Test system: Phosphorylation of STAT6 in human A549 cells
Assay: Phosphorylated STAT6 (pSTAT6) flow cytometry assay in human A549 cells
Type: cell-based
Conditions: read-out: STAT6 IL4 pSTAT6 assay in A549 cells: Average IC50
Excerpt: Example 3. Phosphorylated STAT6 (pSTAT6) Flow Cytometry Assay in Human A549 Cells
Phosphorylation of STAT6 in human A549 cells was quantitatively measured using flow cytometry technology.

SMILES	IC50
COc1ccccc1-c1cc(C2=CCCN(C(=O)CCn3ccnn3)C2)c(F)c2[nH]c(C(=O)N3CCN(c4cc5cnn(C)c5cc4C)CC3)cc12 [Example I-925]	100 to 1000 nM
COc1cc(N2CCN(C(=O)c3cc4c(-c5ccccc5OC)cc(C5=CCCN(C(=O)CCn6ccnn6)C5)c(F)c4[nH]3)CC2)c2ccnn2c1 [Example I-926]	< 100 nM
COc1ccccc1-c1cc(C2=CCCN(C(=O)CCn3ccnn3)C2)c(F)c2[nH]c(C(=O)N3CCN(c4cccc(OC(F)F)n4)CC3)cc12 [Example I-927]	100 to 1000 nM
COc1ccccc1-c1cc(C2=CCCN(C(=O)CCn3ccnn3)C2)c(F)c2[nH]c(C(=O)N3CCN(c4c(C)ccc5c4cnn5C)CC3)cc12 [Example I-928]	< 100 nM
COc1ccccc1-c1cc(C2=CCCN(C(=O)CCn3ccnn3)C2)c(F)c2[nH]c(C(=O)N3CCN(c4ncnc5cccc(F)c45)CC3)cc12 [Example I-929]	< 100 nM
COc1ccccc1-c1cc(C2=CCCN(C(=O)CCn3ccnn3)C2)c(F)c2[nH]c(C(=O)N3CCN(c4cc(O)cc5ccccc45)CC3)cc12 [Example I-930]	100 to 1000 nM
CCOC(=O)c1ccc(N2CCN(C(=O)c3cc4c(-c5ccccc5OC)cc(C5=CCCN(C(=O)CCn6ccnn6)C5)c(F)c4[nH]3)CC2)cc1 [Example I-931]	100 to 1000 nM
COc1ccccc1-c1cc(C2=CCCN(C(=O)CCn3ccnn3)C2)c(F)c2[nH]c(C(=O)N3CCN(c4ccc(C(F)(F)F)cc4F)CC3)cc12 [Example I-932]	100 to 1000 nM
COc1ccccc1-c1cc(C2=CCCN(C(=O)CCn3ccnn3)C2)c(F)c2[nH]c(C(=O)N3CCN(c4ccn(C)n4)CC3)cc12 [Example I-933]	< 100 nM
COc1ccccc1-c1cc(C2=CCCN(C(=O)CCn3ccnn3)C2)c(F)c2[nH]c(C(=O)N3CCN(c4cc(F)ccn4)CC3)cc12 [Example I-934]	< 100 nM
COc1ccccc1-c1cc(C2=CCCN(C(=O)CCn3ccnn3)C2)c(F)c2[nH]c(C(=O)N3CCN(c4cc(C(F)(F)F)ccn4)CC3)cc12 [Example I-935]	< 100 nM
COc1ccccc1-c1cc(C2=CCCN(C(=O)CCn3ccnn3)C2)c(F)c2[nH]c(C(=O)N3CCN(c4cccc5cncn45)CC3)cc12 [Example I-936]	< 100 nM
COc1ccccc1-c1cc(C2=CCCN(C(=O)CCn3ccnn3)C2)c(F)c2[nH]c(C(=O)N3CCN(c4cccc(C(F)(F)F)n4)CC3)cc12 [Example I-937]	100 to 1000 nM
O=C(CCn1ccnn1)N1CCC=C(c2cc(-c3ccccc3)c3cc(C(=O)N4CCN(c5ncccc5OC5CC5)CC4)[nH]c3c2F)C1 [Example I-938]	< 100 nM
COc1ccccc1-c1cc(C2=CCCN(C(=O)CCn3ccnn3)C2)c(F)c2[nH]c(C(=O)N3CCN(c4ncc(C)cc4OC)CC3)cc12 [Example I-939]	< 100 nM
COc1ccccc1-c1cc(C2=CCCN(C(=O)CCn3ccnn3)C2)c(F)c2[nH]c(C(=O)N3CCN(c4ncc(C#N)cc4OC)CC3)cc12 [Example I-940]	< 100 nM
COc1ccccc1-c1cc(C2=CCCN(C(=O)CCn3ccnn3)C2)c(F)c2[nH]c(C(=O)N3CCN(c4ncc(C(F)(F)F)cc4OC)CC3)cc12 [Example I-941]	< 100 nM
CCn1c(N2CCN(C(=O)c3cc4c(-c5ccccc5OC)cc(C5=CCCN(C(=O)CCn6ccnn6)C5)c(F)c4[nH]3)CC2)nc2ccccc21 [Example I-942]	< 100 nM
COc1ccccc1-c1cc(C2=CCCN(C(=O)CCn3ccnn3)C2)c(F)c2[nH]c(C(=O)N3CCN(c4nc5ccccc5n4CC4CC4)CC3)cc12 [Example I-943]	< 100 nM
COc1ccccc1-c1cc(C2=CCCN(C(=O)CCn3ccnn3)C2)c(F)c2[nH]c(C(=O)N3CCN(c4cnc5nccnc5c4C)CC3)cc12 [Example I-944]	< 100 nM

SMILES	IC50
COc1ccccc1-c1cc(C2=CCCN(C(=O)CCn3ccnn3)C2)c(F)c2[nH]c(C(=O)N3CCN(c4ccc5nn(C)cc5c4C)CC3)cc12 [Example I-945]	100 to 1000 nM
COc1ccccc1-c1cc(C2=CCCN(C(=O)CCn3ccnn3)C2)c(F)c2[nH]c(C(=O)N3CCN(c4ncnc5[nH]cnc45)CC3)cc12 [Example I-946]	< 100 nM
COc1ccccc1-c1cc(C2=CCCN(C(=O)CCn3ccnn3)C2)c(F)c2[nH]c(C(=O)N3CCN(c4ccc5c(c4)Nc4ccccc4CC5)CC3)cc12 [Example I-947]	1000 to 10000 nM
COc1ccccc1-c1cc(C2=CCCN(C(=O)CCn3ccnn3)C2)c(F)c2[nH]c(C(=O)N3CCN(c4ccnc(Nc5ccc(C#N)cc5)n4)CC3)cc12 [Example I-948]	< 100 nM
COc1ccccc1-c1cc(C2=CCCN(C(=O)CCn3ccnn3)C2)c(F)c2[nH]c(C(=O)N3CCN(c4cn(C)c(=O)n(C)c4=O)CC3)cc12 [Example I-949]	< 100 nM
COc1ccccc1-c1cc(C2=CCCN(C(=O)CCn3ccnn3)C2)c(F)c2[nH]c(C(=O)N3CCN(c4cc(C)cn5ncnc45)CC3)cc12 [Example I-950]	< 100 nM
COc1ccccc1-c1cc(C2=CCCN(C(=O)CCn3ccnn3)C2)c(F)c2[nH]c(C(=O)N3CCN(c4cccc5nonc45)CC3)cc12 [Example I-951]	< 100 nM
COc1ccccc1-c1cc(C2=CCCN(C(=O)CCn3ccnn3)C2)c(F)c2[nH]c(C(=O)N3CCN(c4cc5ccccc5nc4O)CC3)cc12 [Example I-952]	< 100 nM
COc1ccccc1-c1cc(C2=CCCN(C(=O)CCn3ccnn3)C2)c(F)c2[nH]c(C(=O)N3CCN(c4cc(F)c5ncccc5c4)CC3)cc12 [Example I-953]	< 100 nM
COc1ccccc1-c1cc(C2=CCCN(C(=O)CCn3ccnn3)C2)c(F)c2[nH]c(C(=O)N3CCN(c4cncc5cccnc45)CC3)cc12 [Example I-954]	< 100 nM
COc1cc2ncnc(N3CCN(C(=O)c4cc5c(-c6ccccc6OC)cc(C6=CCCN(C(=O)CCn7ccnn7)C6)c(F)c5[nH]4)CC3)c2cc1O [Example I-955]	< 100 nM
COc1ccccc1-c1cc(C2=CCCN(C(=O)CCn3ccnn3)C2)c(F)c2[nH]c(C(=O)N3CCN(c4ccc5ccccc5c4OC)CC3)cc12 [Example I-956]	1000 to 10000 nM
COc1cc(N2CCN(C(=O)c3cc4c(-c5ccccc5OC)cc(C5=CCCN(C(=O)CCn6ccnn6)C5)c(F)c4[nH]3)CC2)c2ccccc2c1 [Example I-957]	100 to 1000 nM
COc1cc(C)c(N2CCN(C(=O)c3cc4c(-c5ccccc5OC)cc(C5=CCCN(C(=O)CCn6ccnn6)C5)c(F)c4[nH]3)CC2)c(C)n1 [Example I-958]	100 to 1000 nM
COc1ccccc1-c1cc(C2=CCCN(C(=O)CCn3ccnn3)C2)c(F)c2[nH]c(C(=O)N3CCN(c4c(C)ccc5[nH]ncc45)CC3)cc12 [Example I-959]	< 100 nM
COc1ccc(N2CCN(C(=O)c3cc4c(-c5ccccc5OC)cc(C5=CCCN(C(=O)CCn6ccnn6)C5)c(F)c4[nH]3)CC2)cc1 [Example I-960]	< 100 nM
COc1ccccc1-c1cc(C2=CCCN(C(=O)CCn3ccnn3)C2)c(F)c2[nH]c(C(=O)N3CCN(c4ncc(N5CCCCC5)cc4OC4CC4)CC3)cc12 [Example I-961]	< 100 nM
COc1ccccc1-c1cc(C2=CCCN(C(=O)CCn3ccnn3)C2)c(F)c2[nH]c(C(=O)N3CCN(c4cc(OC)c5c(c4)nnn5C)CC3)cc12 [Example I-962]	< 100 nM
COc1ccccc1-c1cc(C2=CCCN(C(=O)CCn3ccnn3)C2)c(F)c2[nH]c(C(=O)N3CCN(c4ccc5cn[nH]c5c4)CC3)cc12 [Example I-963]	< 100 nM
COc1ccccc1-c1cc(C2=CCCN(C(=O)CCn3ccnn3)C2)c(F)c2[nH]c(C(=O)N3CCN(c4cc(C)cc(Br)c4OC)CC3)cc12 [Example I-964]	100 to 1000 nM

From patent publication US20250214977A1, “STAT6 INHIBITORS AND USES THEREOF” (Kymera Therapeutics, Inc., priority 2024, published 2025)
